In test [1] the test system is HKs (EvgS, EnvZ, PhoQ, and CpxA). Details: key: HKs + inhibitory effect against HKs (EvgS, EnvZ, PhoQ, and CpxA). The following applies: summary class; cited from earlier work.
In test [2] the test system is iseA (formerly yoeB). Details: method as in PMID 27999439, PMID 28674376, PMID 26582287; key: RT-qPCR + iseA gene expression was induced in B. subtilis 168; − no effect. Particulars: summary class, iseA gene expression; cited from earlier work.
The test system of test [3] is B. subtilis 168 strain. As to the kind of experiment: MIC, standard microtiter broth dilution. Format: cell-based, Bacillus subtilis. Also noted: key to MIC: MIC + antibacterial activity against Bacillus subtilis 168. The following applies: for antibacterial (antimicrobial) activity against B. subtilis: in words. As for the experimental part: The minimum inhibitory concentrations (MICs) were determined using the standard microtiter broth dilution method, as recommended by the guidelines of the Clinical Laboratory Standards Institute.
On the technique in general: In broth dilution the organism is exposed to a series of concentrations in liquid medium.

Another test has as its target T1, EvgS (559–1197) D1009A (Escherichia coli, UniProt P30855, D1009A).
T1 construct: EvgS (559–1197) D1009A; His6 (C); made in house; host or cells: E. coli BL21(DE3)
As to the kind of experiment: Inhibition of EvgS autophosphorylation. Format: biochemical, Escherichia coli K12. As for the experimental part:
(§1) Autophosphorylation of WalK was conducted at 0.5 or 1 µM in a reaction mixture comprising 50 mM Tris-HCl (pH 8.5), 100 mM KCl, 5 mM MgCl2, 100 mM NH4Cl, 5% DMSO, and 40 µM ATP. The total reaction volume was 40 µl, and the incubation lasted for 30 min at 25 °C. To terminate the reaction, 40 µl of 2 × SDS-PAGE sample buffer was added, followed by a 10-min incubation at 37 °C. Subsequently, SDS-PAGE (10% acrylamide) was performed, and the samples were subjected to Western blotting using a PVDF membrane (Bio-Rad 1620177). The primary antibody used was anti-N3-phosphohistidine antibody (clone SC56-2) (EDM Millipore Corp), and the secondary antibody was goat anti-rabbit IgG-HRP (Abcam). A 2% bovine serum albumin (Sigma-Aldrich) solution served as the blocking reagent. Signals originating from phosphorylated HKs were detected using the HRP substrate (Immobilon Western Chemiluminescent HRP substrate, Millipore) and the Multi Imager II Multi Box (Bio Tools). Signal intensities were quantified with Image Analysis Software CS Analyzer 4 (ATTO). IC50 values (50% inhibitory concentrations) were determined using Prism 7 software (GraphPad).
(§2) In the assessment of naphthoquinone derivatives, the initial screening for inhibitory activity against WalK autophosphorylation was conducted at 50 or 100 µg ml^−1. Compounds displaying inhibitory activity were further examined to ascertain their IC50 values against WalK. For the chosen compounds, inhibition against EvgS, EnvZ, PhoQ, and CpxA HKs was also assessed. These reactions involved the use of 1 µM HK, 40 µM ATP, and a 30 min incubation at 25 °C.

In another test the target is T2, EnvZ (Escherichia coli, UniProt P0AEJ4).
T2 construct: pETEcEnvZ(223-450); His6 (C); made in house; host or cells: E. coli BL21(DE3)
T2 sequence (P0AEJ4 223-450): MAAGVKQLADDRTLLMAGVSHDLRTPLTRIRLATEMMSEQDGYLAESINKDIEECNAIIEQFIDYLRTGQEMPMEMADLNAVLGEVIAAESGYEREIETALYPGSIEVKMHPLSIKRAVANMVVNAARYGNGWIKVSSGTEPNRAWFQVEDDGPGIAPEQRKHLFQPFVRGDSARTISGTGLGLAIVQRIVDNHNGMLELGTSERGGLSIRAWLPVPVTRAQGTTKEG
As to the kind of experiment: Inhibition of EnvZ autophosphorylation. In kind it is biochemical, Escherichia coli K12. As for the experimental part: as §1, §2

In another test the target is T3, PhoQ (Escherichia coli, UniProt P23837).
T3 construct: cytoplasmic regions of PhoQ (261-486) and CpxA (188-457); His6 (C); made in house; host or cells: E. coli BL21(DE3)
T3 sequence (P23837 261-486): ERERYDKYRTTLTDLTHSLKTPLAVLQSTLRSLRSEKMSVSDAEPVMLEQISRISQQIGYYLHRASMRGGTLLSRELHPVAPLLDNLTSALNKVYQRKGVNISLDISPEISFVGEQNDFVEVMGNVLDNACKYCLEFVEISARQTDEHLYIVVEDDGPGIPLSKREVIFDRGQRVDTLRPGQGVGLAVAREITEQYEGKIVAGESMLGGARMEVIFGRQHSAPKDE
The test can be described thus: Inhibition of PhoQ autophosphorylation. In kind it is biochemical, Escherichia coli K12. As for the experimental part:
as §1, §2

In a further test the test system is class I HKs. Also noted: method as in PMID 27999439. The following applies: including WalK, PhoQ, EnvZ, and CpxA; cited from earlier work.
The target in the next test is T4, CpxA (Escherichia coli, UniProt P0AE82).
T4 construct: cytoplasmic regions of PhoQ (261-486) and CpxA (188-457); His6 (C); made in house; host or cells: E. coli BL21(DE3)
T4 sequence (P0AE82 188-457): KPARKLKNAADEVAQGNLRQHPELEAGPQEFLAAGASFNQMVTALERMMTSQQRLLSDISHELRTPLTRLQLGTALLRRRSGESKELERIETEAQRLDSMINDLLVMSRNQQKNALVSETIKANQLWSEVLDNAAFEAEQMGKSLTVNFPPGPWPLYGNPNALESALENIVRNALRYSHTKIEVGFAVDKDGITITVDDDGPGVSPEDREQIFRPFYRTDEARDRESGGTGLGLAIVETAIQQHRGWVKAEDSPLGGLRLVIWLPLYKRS
As to the kind of experiment: Inhibition of CpxA autophosphorylation. Format: biochemical, Escherichia coli K12. As for the experimental part:
as §1, with “The” for “Autophosphorylation of WalK was conducted at 0.5 or 1 µM in a reaction mixture comprising 50 mM Tris-HCl (pH 8.5), 100 mM KCl, 5 mM MgCl2, 100 mM NH4Cl, 5% DMSO, and 40 µM ATP. The”
In the assessment of naphthoquinone derivatives, the initial screening for inhibitory activity against WalK autophosphorylation was conducted at 50 or 100 µg ml^−1. Compounds displaying inhibitory activity were further examined to ascertain their IC50 values against WalK. For the chosen compounds, inhibition against EvgS, EnvZ, PhoQ, and CpxA HKs was also assessed. […]

Test [4] addresses T5, WalK (Bacillus subtilis, UniProt Q45614).
T5 construct: His6 (N); made in house; host or cells: E. coli BL21(DE3)
Also noted: key: WalK + inhibitory effect against WalK. The following applies: summary class; cited from earlier work.

For test [5], the system named is B. subtilis 168 strain. Also noted: method as in PMID 27999439, PMID 28674376, PMID 26582287; key: MIC + antibacterial activity against Bacillus subtilis 168. Particulars: Bacillus subtilis 168, cited from earlier work.
Test [6] has as its target T5, WalK. The test can be described thus: Inhibition of WalK autophosphorylation. Particulars: for IC50: against WalK from B. subtilis, autophosphorylation, N.I. = no inhibition, read-out: IC50; for WalK: summary class. Details: key to WalK: WalK + inhibitory effect against WalK. In kind it is biochemical. On the procedure: as §1, §2
In test [7] the target is T6, WalK (207-611, B. subtilis) (Bacillus subtilis, UniProt Q45614).
T6 construct: His6 (N); made in house; host or cells: E. coli BL21(DE3)
T6 sequence (Q45614 207-611): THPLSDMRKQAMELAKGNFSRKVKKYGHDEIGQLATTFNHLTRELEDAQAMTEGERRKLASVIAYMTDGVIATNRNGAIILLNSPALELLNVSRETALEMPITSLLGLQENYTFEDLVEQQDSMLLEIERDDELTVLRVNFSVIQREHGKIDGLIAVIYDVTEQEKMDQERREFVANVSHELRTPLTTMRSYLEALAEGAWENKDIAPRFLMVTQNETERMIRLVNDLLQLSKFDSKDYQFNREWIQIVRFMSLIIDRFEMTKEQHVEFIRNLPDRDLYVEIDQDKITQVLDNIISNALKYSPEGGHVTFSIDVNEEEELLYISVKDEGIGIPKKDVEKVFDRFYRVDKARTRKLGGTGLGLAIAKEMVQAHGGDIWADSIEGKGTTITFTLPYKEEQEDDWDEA
As to the kind of experiment: Affinity selection/mass spectrometry, competition with waldiomycin. In kind it is binding. Also noted: key to AS/MS: AS/MS + competitive inhibition of the binding of waldiomycin to WalK; − increased binding of waldiomycin to WalK. The following applies: for AS/MS: summary class, effect on binding of waldiomycin to WalK. On the procedure:
The affinity selection/mass spectrometry (AS/MS) is a method which can detect the binding of small compounds to proteins. This experiment was carried out following a previously established protocol (Fig. 5), with the exception of using Millipore 96-well filter plates (MSBVN1210) instead of MAHAN4510. In the experiment, 1 µM of WalK (207-611, B. subtilis, refer to Table S2) was combined and incubated with 5 µM of waldiomycin and competitor compounds in a reaction buffer. The buffer composition was as follows: 25 mM Tris-HCl (pH 8.0), 50 mM KCl, 50 mM NH4Cl, 5 mM MgCl2, 1 mM DTT, and 0.1% CHAPS. Following the incubation, the mixture was subjected to size-exclusion chromatography via centrifugation to eliminate free compounds. The protein that was eluted was then denatured by adding an equal volume of methanol/0.1% formic acid. The compounds that were subsequently released from the protein were detected using an LC/MS system. The concentrations of waldiomycin were calculated from the value of peak areas using calibration curve that covered the range of 1 nM to 1 µM (R^2 = 0.9991). The concentration of waldiomycin in the eluate of WalK and waldiomycin without competitor was 10.1 nM, and percentages to this value were calculated for other samples.

Test [8] has as its system iseA (formerly yoeB). As to the kind of experiment: RT-qPCR of iseA expression in B. subtilis cells. Format: cell-based, B. subtilis 168. Also noted: key to RT-qPCR: RT-qPCR + iseA gene expression was induced in B. subtilis 168; − no effect. Particulars: for expression of iseA: exponentially growing cells, subMIC or MIC levels, 5 min, relative to DMSO control; for RT-qPCR: summary class, iseA gene expression in B. subtilis 168. On the procedure: In brief, the cells were aerated and grown to an optical density at 660 nm of 0.3–0.4 at 37 °C. After the addition of DMSO or naphthoquinone derivatives, the cultures were further incubated for 5 min, cooled on ice for 1 min, and then harvested by centrifugation (2300 × g, 10 min, 4 °C). The cells were resuspended in 800 µl of RNA Lysis Buffer (SV Total RNA Isolation System, Z3100, Promega), transferred to a screw-capped tube containing 400 mg of glass beads (GB-01, TOMY), and disrupted using MicroSmash (MS-100, TOMY Medico) at 3000 rpm, 60 s ON/OFF for 6 cycles. RNA was then purified from 175 µl of the supernatant using the SV Total RNA Isolation System, followed by DNase I treatment (Turbo DNA-free^TM Kit, AM1907, Invitrogen) to remove any residual genomic DNA contamination. […] The expression levels of the genes were normalized using the 16S rRNA gene as an internal standard. Each assay was performed at least three times. Statistical analyses were conducted using Tukey’s multiple comparison test (GraphPad Prism 7).
For orientation: Quantitative PCR measures a nucleic acid by following its amplification.

The test system of test [9] is HKs (EvgS, EnvZ, PhoQ, and CpxA). The test can be described thus: Inhibition of class I HKs, summary over several HKs. In kind it is biochemical, Escherichia coli K12. Also noted: key to HKs: HKs + inhibitory effect against HKs (EvgS, EnvZ, PhoQ, and CpxA). On the procedure: as §1, §2
The mark [10] stands for this setting: Bacillus subtilis, B. subtilis 168 strain grown in LB broth at 37 °C for 18 h, read-out: MIC.
Setting [11] is: summary class, Bacillus subtilis 168.

“Also recorded” adds a separate entry of the source. Read-outs that look alike come from different tables or passages of the source.

T5 sequence (Q45614 207-611): as above
T1 sequence (P30855 559-1197 D1009A): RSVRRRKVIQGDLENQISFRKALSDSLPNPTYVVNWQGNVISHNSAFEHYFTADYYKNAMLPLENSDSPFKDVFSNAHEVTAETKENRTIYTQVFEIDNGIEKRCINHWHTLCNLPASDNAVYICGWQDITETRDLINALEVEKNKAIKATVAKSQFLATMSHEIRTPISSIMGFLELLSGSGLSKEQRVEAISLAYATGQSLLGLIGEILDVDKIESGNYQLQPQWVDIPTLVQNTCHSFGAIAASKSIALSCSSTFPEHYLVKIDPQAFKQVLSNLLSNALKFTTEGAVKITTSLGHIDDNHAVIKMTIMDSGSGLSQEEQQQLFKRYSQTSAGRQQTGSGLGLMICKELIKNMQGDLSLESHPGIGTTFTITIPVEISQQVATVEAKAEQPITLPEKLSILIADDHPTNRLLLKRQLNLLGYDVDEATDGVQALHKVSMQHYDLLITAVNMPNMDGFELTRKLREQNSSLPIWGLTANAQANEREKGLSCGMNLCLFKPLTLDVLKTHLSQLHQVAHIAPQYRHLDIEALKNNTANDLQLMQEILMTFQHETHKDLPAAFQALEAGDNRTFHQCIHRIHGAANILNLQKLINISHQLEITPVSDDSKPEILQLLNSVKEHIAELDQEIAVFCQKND

One may read the MIC as the least concentration at which growth counts as inhibited. Usually IC50 stands for the concentration that inhibits the measured activity by half. On to `C[C@@H]1O[C@](C)(C(=O)O)OC1/C=C/C=C/C=C/C(=O)O[C@H]1CC[C@H](c2ccc3c(c2O)C(=O)c2ccc4c(c2C3=O)C(=O)[C@@H](O)[C@](C)(O)C4)O[C@@H]1C` (some centres unmarked) [Waldiomycin, reference compound], for which the HKs result in [1] is on record as “+”. For the same compound, the RT-qPCR result in the test with iseA (formerly yoeB) [2] is reported as “+”. Also, the MIC in the test on B. subtilis 168 strain [3] (setting [10]) is 8 µg/mL; in the test with B. subtilis 168 strain [5], 8 µg/mL; with B. subtilis 168 strain [5] (summary class), “+”. Also, the 50% inhibitory concentration (IC50) was found to be 66.8 µM against EvgS (559–1197) D1009A; 33.1 µM at EnvZ; 10.9 µM against PhoQ; 93.9 µM at CpxA; 13.1 µM at WalK [6]. The “inhibition of class I HKs” value in the test on class I HKs is reported as “inhibited 13 class I HKs”. Also, the WalK entry at WalK [4] is “+”. For the same compound, in test [7] (without competitor, WalK 1 µM, waldiomycin 5 µM), the “concentration of waldiomycin in the eluate of WalK and waldiomycin” value turned out to be 10.1 nM.

With `Nc1cccc2c1C(=O)C(Cl)=C(Nc1ccc(O)c(C(=O)O)c1)C2=O` [2o, 5-((5-amino-3-chloro-1,4-dioxo-1,4-dihydronaphthalen-2-yl)amino)-2-hydroxybenzoic acid], the “expression of iseA” value in the test with iseA (formerly yoeB) [8] is “did not change”. In addition, in the test on iseA (formerly yoeB) [8], the RT-qPCR entry is reported as “−”. Moreover, the minimal inhibitory concentration (MIC) in the test with B. subtilis 168 strain [3] (setting [10]) was 16 µg/mL; in the test with B. subtilis 168 strain [3] (setting [11]) it was “+”. For the same compound, in the test on B. subtilis 168 strain [3], the “antibacterial (antimicrobial) activity against B. subtilis” value is listed as “weaker”. Further, the half-inhibitory concentration (IC50) against EvgS (559–1197) D1009A is 0.2 µM; against EnvZ it was 1.3 µM; against PhoQ it was 0.1 µM; at CpxA, 0.8 µM; on WalK [6], 25.9 µM. The “inhibition of EvgS, EnvZ, PhoQ, and CpxA” value in [9] (in words) was “inhibited all four of these HKs”. The HKs entry in test [9] (summary class, EvgS, EnvZ, PhoQ, and CpxA) is “+”. Also, on WalK [6] (in words), the “inhibitory activity against WalK” value was “weaker”. The WalK result on WalK [6] is given as “+”. In addition, in test [7] (compound 30 and 100 µM, in words), the “effect on the signal of waldiomycin” value is “reduced the signal of waldiomycin in a dose-dependent manner”. In addition, the “signal of waldiomycin compared to only waldiomycin with WalK” value in test [7] (compound at 100 µM, waldiomycin 5 µM, WalK 1 µM) is reported as “about 10%”. In test [7] (in words), the “binding to WalK competitive with that of waldiomycin” value is reported as “competitive; also recorded: competitively interacted with waldiomycin”. Further, the AS/MS result in test [7] is listed as “+”.

As for `O=C1C(N2CCNCC2)=CC(=O)c2c(O)cccc21` [2b, 5-hydroxy-2-(piperazin-1-yl)naphthalene-1,4-dione], in the test with iseA (formerly yoeB) [8], the “expression of iseA” value is “did not change” and the RT-qPCR result was “−”. For the same compound, in the test with B. subtilis 168 strain [3] (B. subtilis 168 strain grown in LB broth at 37 °C for 18 h), the MIC was found to be 8 µg/mL. Besides, in the test with B. subtilis 168 strain [3], the “antibacterial (antimicrobial) activity against B. subtilis” value was “equal to waldiomycin or even stronger”. Moreover, the minimal inhibitory concentration (MIC) entry in the test with B. subtilis 168 strain [3] (setting [11]) is “+”. In addition, at WalK [6], the IC50 came to 48.4 µM and the WalK result is recorded as “+”. Further, in test [7] (compound 30 or 100 µM, waldiomycin 5 µM, WalK 1 µM), the “increase of MS signal of the collected waldiomycin compared to only waldiomycin” value is reported as “about twofold”. For the same compound, the “binding to WalK competitive with that of waldiomycin” value in test [7] (in words) was “not competitive; also recorded: enhanced the binding of waldiomycin to WalK”. Besides, in test [7], the AS/MS result is listed as “−”.

The record behind these values is paper PMC11284088, “Synthesis and biochemical characterization of naphthoquinone derivatives targeting bacterial histidine kinases” (The Journal of Antibiotics, 2024).
